Data as given in patent publication US20240132531A1, “NOVEL GALACTOSIDE INHIBITOR OF GALECTINS” (GALECTO BIOTECH AB, priority 2020, published 2024).

Legend:
galectin-3 = galectin-3 (Homo sapiens, UniProt P17931); assay: Fluorescence anisotropy assay, affinity for galectin-3; assay type: binding; conditions: compound as inhibitor of the interaction between galectin and a fluorescein tagged saccharide probe; read-out: Gal-3 Kd
Procedure: (§1) The affinity of Example 1-39 for galectins were determined by a fluorescence anisotropy assay where the compound was used as an inhibitor of the interaction between galectin and a fluorescein tagged saccharide probe as described Sarme, P., Kahl-Knutsson, B., Huflejt, M., Nilsson, U. J., and Leffler H. (2004) Fluorescence polarization as an analytical tool to evaluate galectin-ligand interactions. Anal. Biochem. 334: 36-47, (Sarme et al., 2004) and Monovalent interactions of Galectin-1 By Salomonsson, Emma; Larumbe, Amaia; Tejler, Johan; Tullberg, Erik; Rydberg, Hanna; Sundin, Anders; Khabut, Areej; Frejd, Torbjorn; Lobsanov, Yuri D.; Rini, James M.; et al, From Biochemistry (2010), 49(44), 9518-9532, (Salomonsson et al., 2010).

galectin-1 = galectin-1 (Homo sapiens, UniProt P09382); assay: Fluorescence anisotropy assay, affinity for galectin-1; assay type: binding; conditions: compound as inhibitor of the interaction between galectin and a fluorescein tagged saccharide probe; read-out: Gal-1 Kd
galectin-1, sequence (P09382 whole entry): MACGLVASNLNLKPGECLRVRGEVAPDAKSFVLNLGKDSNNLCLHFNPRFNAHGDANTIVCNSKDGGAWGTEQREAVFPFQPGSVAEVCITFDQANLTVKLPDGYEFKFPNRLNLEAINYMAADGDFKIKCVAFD
Procedure: as §1

galectin-3, sequence (P17931 whole entry): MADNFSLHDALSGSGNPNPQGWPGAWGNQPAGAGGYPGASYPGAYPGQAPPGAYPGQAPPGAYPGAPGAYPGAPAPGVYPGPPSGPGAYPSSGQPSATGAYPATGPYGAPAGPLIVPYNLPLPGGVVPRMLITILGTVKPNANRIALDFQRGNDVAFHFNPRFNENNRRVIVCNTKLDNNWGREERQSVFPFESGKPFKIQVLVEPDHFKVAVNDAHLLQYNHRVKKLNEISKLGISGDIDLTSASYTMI

Kd (galectin-3) [µM]	Kd (galectin-1) [µM]	Structure (SMILES)
0.43	0.048	OCC1O[C@@H](c2ccnn2-c2cc(Cl)ccc2C(F)(F)F)C(O)C(n2cc(-c3nc(Cl)cs3)nn2)[C@H]1O (stereo partly drawn) [Example 11, 1-{5-{3-[4-(4-Chlorothiazol-2-yl)-1H-1,2,3-triazol-1-yl]-3-deoxy-β-D-galactopyranosyl}-1H-1,2-pyrazol-1-yl}-5-chloro-2-(trifluoromethyl)benzene]
0.39	0.024	COC1C(n2cc(-c3ncc(Cl)s3)nn2)[C@@H](O)C(CO)O[C@H]1c1ccnn1-c1cc(Cl)ccc1C(F)(F)F (stereo partly drawn) [Example 12, 1-{5-{3-[4-(5-Chlorothiazol-2-yl)-1H-1,2,3-triazol-1-yl]-3-deoxy-2-O-methyl-β-D-galactopyranosyl}-1H-1,2-pyrazol-1-yl}-5-chloro-2-(trifluoromethyl)benzene]
0.29	0.036	COC1C(n2cc(-c3nc(Cl)cs3)nn2)[C@@H](O)C(CO)O[C@H]1c1cc(C)nn1-c1cc(Cl)ccc1C(F)(F)F (stereo partly drawn) [Example 13, 1-{5-{3-[4-(4-Chlorothiazol-2-yl)-1H-1,2,3-triazol-1-yl]-3-deoxy-2-O-methyl-β-D-galactopyranosyl}-3-methyl-1H-1,2-pyrazol-1-yl}-5-chloro-2-(trifluoromethyl)benzene]
5.2	0.15	COC1C(n2cc(-c3nccs3)nn2)[C@@H](O)C(CO)O[C@H]1c1cc(C)nn1-c1cc(Cl)ccc1C(F)(F)F (stereo partly drawn) [Example 14, 5-Chloro-1-{5-{3-deoxy-2-O-methyl-3-[4-(2-thiazolyl)-1H-1,2,3-triazol-1-yl]-β-D-galactopyranosyl}-3-methyl-1H-1,2-pyrazol-1-yl}-2-(trifluoromethyl)benzene]
2	0.067	COC1C(n2cc(-c3nc(Cl)cs3)nn2)[C@@H](O)C(CO)O[C@H]1c1cc(C)nn1-c1ccc2nc(C)sc2c1 (stereo partly drawn) [Example 15, 1-{5-{3-[4-(4-Chlorothiazol-2-yl)-1H-1,2,3-triazol-1-yl]-3-deoxy-2-O-methyl-β-D-galactopyranosyl}-3-methyl-1H-1,2-pyrazol-1-yl}-2-methylbenzothiazole]
1.5	0.038	COC1C(n2cc(-c3nc(Cl)cs3)nn2)[C@@H](O)C(CO)O[C@H]1c1ccnn1-c1ccc2nc(C)sc2c1 (stereo partly drawn) [Example 16, 1-{5-{3-[4-(4-Chlorothiazol-2-yl)-1H-1,2,3-triazol-1-yl]-3-deoxy-2-O-methyl-β-D-galactopyranosyl}-1H-1,2-pyrazol-1-yl}-2-methylbenzothiazole]
0.88	0.24	CCOC(=O)c1cc([C@@H]2OC(CO)[C@H](O)C(n3cc(-c4nc(Cl)cs4)nn3)C2OC)n(-c2cc(Cl)ccc2C(F)(F)F)n1 (stereo partly drawn) [Example 17, 1-{5-{3-[4-(4-Chlorothiazol-2-yl)-1H-1,2,3-triazol-1-yl]-3-deoxy-2-O-methyl-β-D-galactopyranosyl}-3-ethoxycarbonyl-1H-1,2-pyrazol-1-yl}-5-chloro-2-(trifluoromethyl)benzene]
0.32	0.42	COC1C(n2cc(-c3nc(Cl)cs3)nn2)[C@@H](O)C(CO)O[C@H]1c1cc(C(=O)O)nn1-c1cc(Cl)ccc1C(F)(F)F (stereo partly drawn) [Example 18, 1-{3-Carboxy-5-{3-[4-(4-chlorothiazol-2-yl)-1H-1,2,3-triazol-1-yl]-3-deoxy-2-O-methyl-β-D-galactopyranosyl}-1H-1,2-pyrazol-1-yl}-5-chloro-2-(trifluoromethyl)benzene]
0.28	0.043	OCC1O[C@@H](c2ccnn2-c2cc(Br)ccc2C(F)(F)F)C(O)C(n2cc(-c3nc(Cl)cs3)nn2)[C@H]1O (stereo partly drawn) [Example 19, 5-Bromo-1-{5-{3-[4-(4-chlorothiazol-2-yl)-1H-1,2,3-triazol-1-yl]-3-deoxy-β-D-galactopyranosyl}-1H-1,2-pyrazol-1-yl}-2-(trifluoromethyl)benzene]
0.41	0.031	COC1C(n2cc(-c3nc(Cl)cs3)nn2)[C@@H](O)C(CO)O[C@H]1c1ccnn1-c1cc(Br)ccc1C(F)(F)F (stereo partly drawn) [Example 20, 5-Bromo-1-{5-{3-[4-(4-chlorothiazol-2-yl)-1H-1,2,3-triazol-1-yl]-3-deoxy-2-O-methyl-β-D-galactopyranosyl}-1H-1,2-pyrazol-1-yl}-2-(trifluoromethyl)benzene]
1.1	0.035	COC1C(n2cc(-c3nc(Cl)cs3)nn2)[C@@H](O)C(CO)O[C@H]1c1ccnn1-c1cc(Cl)c(Cl)cc1C(F)(F)F (stereo partly drawn) [Example 21, 1-{5-{3-[4-(4-Chlorothiazol-2-yl)-1H-1,2,3-triazol-1-yl]-3-deoxy-2-O-methyl-β-D-galactopyranosyl}-1H-1,2-pyrazol-1-yl}-4,5-dichloro-2-(trifluoromethyl)benzene]
0.85	0.043	COC1C(n2cc(-c3nc(Cl)cs3)nn2)[C@@H](O)C(CO)O[C@H]1c1ccnn1-c1cc(Cl)c(F)cc1C(F)(F)F (stereo partly drawn) [Example 22, 1-{5-{3-[4-(4-Chlorothiazol-2-yl)-1H-1,2,3-triazol-1-yl]-3-deoxy-2-O-methyl-β-D-galactopyranosyl}-1H-1,2-pyrazol-1-yl}-5-chloro-4-fluoro-2-(trifluoromethyl)benzene]
0.29	0.024	COC1[C@@H](n2cc(-c3nc(Cl)cs3)nn2)[C@@H](O)C(CO)O[C@H]1c1ccnn1-c1cc(Br)c(F)cc1C(F)(F)F (stereo partly drawn) [Example 23, 5-Bromo-1-{5-{3-[4-(4-chlorothiazol-2-yl)-1H-1,2,3-triazol-1-yl]-3-deoxy-2-O-methyl-β-D-galactopyranosyl}-1H-1,2-pyrazol-1-yl}-4-fluoro-2-(trifluoromethyl)benzene]
0.2	0.036	OCC1O[C@@H](c2ccnn2-c2cc(Br)c(F)cc2C(F)(F)F)C(O)[C@@H](n2cc(-c3nc(Cl)cs3)nn2)[C@H]1O (stereo partly drawn) [Example 24, 5-Bromo-1-{5-{3-[4-(4-chlorothiazol-2-yl)-1H-1,2,3-triazol-1-yl]-3-deoxy-β-D-galactopyranosyl}-1H-1,2-pyrazol-1-yl}-4-fluoro-2-(trifluoromethyl)benzene]
0.18	0.04	COC1C(n2cc(-c3nc(Cl)cs3)nn2)[C@@H](O)C(CO)O[C@H]1c1cc(Cl)nn1-c1cc(Cl)ccc1C(F)(F)F (stereo partly drawn) [Example 25, 1-{5-{3-[4-(4-Chlorothiazol-2-yl)-1H-1,2,3-triazol-1-yl]-3-deoxy-2-O-methyl-β-D-galactopyranosyl}-3-chloro-1H-1,2-pyrazol-1-yl}-5-chloro-2-(trifluoromethyl)benzene]
0.75	0.066	COC1C(n2cc(-c3nc(Cl)cs3)nn2)[C@@H](O)C(CO)O[C@H]1c1cc(Br)nn1-c1cc(Cl)ccc1C(F)(F)F (stereo partly drawn) [Example 26, 1-{3-Bromo-5-{3-[4-(4-chlorothiazol-2-yl)-1H-1,2,3-triazol-1-yl]-3-deoxy-2-O-methyl-β-D-galactopyranosyl}-1H-1,2-pyrazol-1-yl}-5-chloro-2-(trifluoromethyl)benzene]
1.2	0.54	C=C(C)c1cc([C@@H]2OC(CO)[C@H](O)C(n3cc(-c4nc(Cl)cs4)nn3)C2OC)n(-c2cc(Cl)ccc2C(F)(F)F)n1 (stereo partly drawn) [Example 27, 1-{5-{3-[4-(4-Chlorothiazol-2-yl)-1H-1,2,3-triazol-1-yl]-3-deoxy-2-O-methyl-β-D-galactopyranosyl}-3-(1-methylethenyl)-1H-1,2-pyrazol-1-yl}-5-chloro-2-(trifluoromethyl)benzene]
0.32	0.18	COC1C(n2cc(-c3nc(Cl)cs3)nn2)[C@@H](O)C(CO)O[C@H]1c1cc(C(C)C)nn1-c1cc(Cl)ccc1C(F)(F)F (stereo partly drawn) [Example 28, 1-{5-{3-[4-(4-Chlorothiazol-2-yl)-1H-1,2,3-triazol-1-yl]-3-deoxy-2-O-methyl-β-D-galactopyranosyl}-3-isopropyl-1H-1,2-pyrazol-1-yl}-5-chloro-2-(trifluoromethyl)benzene]
0.48	0.19	C=Cc1cc([C@@H]2OC(CO)[C@H](O)C(n3cc(-c4nc(Cl)cs4)nn3)C2OC)n(-c2cc(Cl)ccc2C(F)(F)F)n1 (stereo partly drawn) [Example 29, 1-{5-{3-[4-(4-Chlorothiazol-2-yl)-1H-1,2,3-triazol-1-yl]-3-deoxy-2-O-methyl-β-D-galactopyranosyl}-3-ethenyl-1H-1,2-pyrazol-1-yl}-5-chloro-2-(trifluoromethyl)benzene]
0.68	0.1	CCc1cc([C@@H]2OC(CO)[C@H](O)C(n3cc(-c4nc(Cl)cs4)nn3)C2OC)n(-c2cc(Cl)ccc2C(F)(F)F)n1 (stereo partly drawn) [Example 30, 1-{5-{3-[4-(4-Chlorothiazol-2-yl)-1H-1,2,3-triazol-1-yl]-3-deoxy-2-O-methyl-β-D-galactopyranosyl}-3-ethyl-1H-1,2-pyrazol-1-yl}-5-chloro-2-(trifluoromethyl)benzene]
0.4	0.071	COC1C(n2cc(-c3nc(Cl)cs3)nn2)[C@@H](O)C(CO)O[C@H]1c1cc(C#N)nn1-c1cc(Cl)ccc1C(F)(F)F (stereo partly drawn) [Example 31, 1-{5-{3-[4-(4-Chlorothiazol-2-yl)-1H-1,2,3-triazol-1-yl]-3-deoxy-2-O-methyl-β-D-galactopyranosyl}-3-cyano-1H-1,2-pyrazol-1-yl}-5-chloro-2-(trifluoromethyl)benzene]
0.65	0.05	COC1C(n2cc(-c3nc(Cl)cs3)nn2)[C@@H](O)C(CO)O[C@H]1c1ccnn1-c1cc(Cl)cnc1C(F)(F)F (stereo partly drawn) [Example 32, 3-{5-{3-[4-(4-Chlorothiazol-2-yl)-1H-1,2,3-triazol-1-yl]-3-deoxy-2-O-methyl-β-D-galactopyranosyl}-1H-1,2-pyrazol-1-yl}-5-chloro-2-(trifluoromethyl)pyridine]
